Measurements: ChEMBL document CHEMBL1201862, “PubChem BioAssay data set” (2004)
Activity calls are given as the source filed them.

Assays:
HEK293 [1] = test: membrane integrity loss in HEK cells – cell-based, fluorescence, cytotoxicity control for IDE activator project, dose response (AID 588440); type: functional; details: Homo sapiens;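 also: cytotoxicity by LDH release measuring loss of membrane integrity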
HEK293 [2] = test: optical interference in Abeta FP readout, dose response, artefact control for IDE activator project, biochemical, fluorescence polarization (AID 588442); type: functional, cell-based; details: Homo sapiens
Insulin-degrading enzyme [3] = target: T1, Insulin-degrading enzyme (Homo sapiens, UniProt P14735); test: cellular IDE activation of Abeta substrate cleavage – fluorescence polarization, HEK cells, dose response (AID 588439); type: functional, cell-based
T1 sequence (P14735 whole entry): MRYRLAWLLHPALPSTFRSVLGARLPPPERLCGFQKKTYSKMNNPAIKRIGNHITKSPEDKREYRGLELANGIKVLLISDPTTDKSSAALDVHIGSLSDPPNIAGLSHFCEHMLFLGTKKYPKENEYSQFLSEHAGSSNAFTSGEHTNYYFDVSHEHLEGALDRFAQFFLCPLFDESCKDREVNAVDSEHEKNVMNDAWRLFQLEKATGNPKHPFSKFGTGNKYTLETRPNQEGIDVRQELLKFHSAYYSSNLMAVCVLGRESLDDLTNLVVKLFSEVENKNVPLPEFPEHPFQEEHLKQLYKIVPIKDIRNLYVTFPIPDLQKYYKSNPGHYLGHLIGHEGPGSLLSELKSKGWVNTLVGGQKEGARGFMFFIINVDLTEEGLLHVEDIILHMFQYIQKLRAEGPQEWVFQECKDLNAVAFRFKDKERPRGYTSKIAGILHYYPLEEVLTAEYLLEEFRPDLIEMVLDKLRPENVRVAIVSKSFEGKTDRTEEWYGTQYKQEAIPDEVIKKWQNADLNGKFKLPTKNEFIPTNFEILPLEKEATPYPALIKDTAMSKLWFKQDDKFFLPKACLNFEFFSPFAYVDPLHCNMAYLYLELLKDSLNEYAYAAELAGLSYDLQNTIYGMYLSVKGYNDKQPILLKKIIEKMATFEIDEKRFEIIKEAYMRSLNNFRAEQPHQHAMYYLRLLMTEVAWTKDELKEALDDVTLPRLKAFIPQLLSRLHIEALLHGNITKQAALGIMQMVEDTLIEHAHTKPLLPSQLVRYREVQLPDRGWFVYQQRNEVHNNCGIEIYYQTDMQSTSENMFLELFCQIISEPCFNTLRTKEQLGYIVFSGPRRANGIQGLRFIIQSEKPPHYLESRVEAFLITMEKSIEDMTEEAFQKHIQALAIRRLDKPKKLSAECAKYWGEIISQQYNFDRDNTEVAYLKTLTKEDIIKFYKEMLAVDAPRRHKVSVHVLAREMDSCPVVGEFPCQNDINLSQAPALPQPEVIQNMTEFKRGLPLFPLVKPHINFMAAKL

Cytochrome P450 1A2 = target: T2, Cytochrome P450 1A2 (Homo sapiens, UniProt P05177);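 also: PubChem cytochrome P450 panel assay, CYP1A2 panel member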
T2 sequence (P05177 whole entry): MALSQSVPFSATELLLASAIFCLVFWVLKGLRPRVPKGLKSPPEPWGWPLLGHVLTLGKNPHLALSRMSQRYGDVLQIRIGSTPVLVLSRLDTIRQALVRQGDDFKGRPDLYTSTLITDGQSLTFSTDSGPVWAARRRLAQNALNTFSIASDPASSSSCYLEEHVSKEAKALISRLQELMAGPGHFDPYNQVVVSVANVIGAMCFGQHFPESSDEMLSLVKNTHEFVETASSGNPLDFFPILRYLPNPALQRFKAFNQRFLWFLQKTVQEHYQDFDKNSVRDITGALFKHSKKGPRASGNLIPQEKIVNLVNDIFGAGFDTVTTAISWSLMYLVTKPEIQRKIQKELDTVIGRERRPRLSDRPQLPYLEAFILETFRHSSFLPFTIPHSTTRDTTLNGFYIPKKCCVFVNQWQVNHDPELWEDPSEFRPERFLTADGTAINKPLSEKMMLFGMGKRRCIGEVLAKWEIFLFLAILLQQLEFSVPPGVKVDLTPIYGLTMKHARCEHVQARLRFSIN

Insulin-degrading enzyme [4] = target: T1, Insulin-degrading enzyme; test: recombinant IDE activation, cell-free – biochemical, fluorescence polarization, counter-screen for IDE activator project, dose response (AID 588681)
[5] = cAMP pathway inhibition in counterscreen cell line – TR-FRET cAMP detection, counter-screen for MC4R biased antagonist project, dose response (AID 602305); type: functional, cell-based;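 also: U2OS cells stimulated with forskolin near its EC80 as the cAMP inducer; potency is for inhibition of forskolin-stimulated cAMP signaling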
P388/ADR = test: cells; type: functional; details: Mus musculus
P388 = test: cells; type: functional; details: Mus musculus
Melanocortin receptor 4 = Melanocortin receptor 4 (Homo sapiens, UniProt P32245); test: inhibitors of MC4R cAMP signaling – cell-based, TR-FRET, biased antagonists, dose response (AID 602298); type: functional;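 also: antagonist potency against agonist-stimulated cAMP production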
Melanocortin receptor 4, sequence (P32245 whole entry): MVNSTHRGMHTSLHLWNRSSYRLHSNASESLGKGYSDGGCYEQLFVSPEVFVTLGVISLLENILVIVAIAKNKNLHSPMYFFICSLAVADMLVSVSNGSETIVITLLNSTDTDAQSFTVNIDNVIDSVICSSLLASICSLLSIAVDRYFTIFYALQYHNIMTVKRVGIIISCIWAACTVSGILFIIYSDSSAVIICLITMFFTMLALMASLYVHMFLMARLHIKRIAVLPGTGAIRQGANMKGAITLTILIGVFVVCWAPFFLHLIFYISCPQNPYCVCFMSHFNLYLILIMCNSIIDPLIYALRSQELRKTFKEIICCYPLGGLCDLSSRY

SN12K1 = test: cells; type: functional; details: Homo sapiens
Orexin receptor type 2 [6] = target: T3, Orexin receptor type 2 (Homo sapiens, UniProt O43614); test: Counterscreen assay for antagonists of the orexin 1 receptor (OX1R; HCRTR1): Fluorescence-based cell-based dose response assay for antagonists of the orexin 2 receptor (OX2R; HCRTR2), run by assay provider.; type: functional
T3 sequence (O43614 whole entry): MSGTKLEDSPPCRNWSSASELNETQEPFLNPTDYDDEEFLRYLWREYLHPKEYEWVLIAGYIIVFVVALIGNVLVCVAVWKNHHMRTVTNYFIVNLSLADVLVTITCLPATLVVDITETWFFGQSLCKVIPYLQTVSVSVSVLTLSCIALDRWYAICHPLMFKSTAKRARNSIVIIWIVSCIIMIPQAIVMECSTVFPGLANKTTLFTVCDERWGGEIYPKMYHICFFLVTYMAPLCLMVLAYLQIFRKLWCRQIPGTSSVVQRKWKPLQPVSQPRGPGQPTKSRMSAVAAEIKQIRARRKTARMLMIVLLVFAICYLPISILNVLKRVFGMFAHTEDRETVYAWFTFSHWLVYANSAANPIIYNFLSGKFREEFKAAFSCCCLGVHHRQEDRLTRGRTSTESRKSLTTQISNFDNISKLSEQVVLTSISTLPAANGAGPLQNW

[7] = target: T4, Orexin/Hypocretin receptor type 1 (Homo sapiens, UniProt O43613); test: Homogeneous Time Resolved Fluorescence (HTRF)-based cell-based high throughput dose response assay for antagonists of the orexin 1 receptor (OX1R; HCRTR1). [Related pubchem assays (depositor defined):AID434989, AID435008, AID463079, AID485270, AID492963, AID492964, AID492965, AID493232, AID504717, AID504718]; type: functional
T4 sequence (O43613 whole entry): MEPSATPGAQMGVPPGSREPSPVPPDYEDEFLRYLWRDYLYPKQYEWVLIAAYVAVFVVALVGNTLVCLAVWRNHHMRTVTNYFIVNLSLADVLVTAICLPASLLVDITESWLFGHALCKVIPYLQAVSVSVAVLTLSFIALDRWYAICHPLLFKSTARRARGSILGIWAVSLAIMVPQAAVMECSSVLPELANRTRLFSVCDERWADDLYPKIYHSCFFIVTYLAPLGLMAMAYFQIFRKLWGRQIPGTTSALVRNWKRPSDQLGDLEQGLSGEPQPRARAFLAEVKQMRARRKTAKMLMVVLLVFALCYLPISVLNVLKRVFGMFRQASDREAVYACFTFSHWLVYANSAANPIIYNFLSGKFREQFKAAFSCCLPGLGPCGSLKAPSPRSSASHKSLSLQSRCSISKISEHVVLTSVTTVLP

[8] = (§1) Counterscreen for antagonists of the orexin 1 receptor (OX1R; HCRTR1): Fluorescence-based cell-based high throughput dose response assay to identify antagonists of the parental CHO cell line. [Related pubchem assays (depositor defined):AID434989, AID435008, AID463079, AID485270, AID492963, AID492964, AID492965, AID493232, AID504699, AID504701]; type: functional
CHO-K1 = test: as §1, with “Homogeneous time resolved fluorescence (HTRF)-based” for “Fluorescence-based”, “cell-based” for “cell-based high throughput”, “CHO-K1” for “CHO”; type: functional; details: Cricetulus griseus;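 also: potency for inhibition of ATP-stimulated IP1 production as antagonists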
Orexin receptor type 2 [9] = target: T3, Orexin receptor type 2; test: Counterscreen assay for antagonists of the orexin 1 receptor (OX1R; HCRTR1): Homogeneous Time Resolved Fluorescence (HTRF)-based cell-based dose response assay for antagonists of the orexin 2 receptor (OX2R; HCRTR2), run by assay provider.; type: functional
[10] = target: T5, Carboxy-terminal domain RNA polymerase II polypeptide A small phosphatase 1 (Homo sapiens, UniProt Q9GZU7); test: CTDSP1 inhibitors, concentration-response, biochemical, absorbance readout, ultra-high-throughput screen actives (AID 540297); type: functional
T5 sequence (Q9GZU7 whole entry): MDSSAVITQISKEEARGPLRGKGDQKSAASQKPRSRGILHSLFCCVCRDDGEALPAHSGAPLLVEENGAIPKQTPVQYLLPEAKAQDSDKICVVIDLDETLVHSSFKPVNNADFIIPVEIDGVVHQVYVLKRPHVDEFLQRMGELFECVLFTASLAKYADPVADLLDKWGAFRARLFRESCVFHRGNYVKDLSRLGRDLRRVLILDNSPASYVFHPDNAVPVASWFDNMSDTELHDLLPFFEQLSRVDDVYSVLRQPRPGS

[11] = target: T4, Orexin/Hypocretin receptor type 1; test: Fluorescence-based cell-based high throughput dose response assay for antagonists of the orexin 1 receptor (OX1R; HCRTR1). [Related pubchem assays (depositor defined):AID434989, AID435008, AID463079, AID485270, AID492963, AID492964, AID492965, AID493232, AID504717, AID504718]; type: functional

SMILES	IC50 (Orexin receptor type 2 [6])	IC50 [7]	IC50 [8]	IC50 (CHO-K1)	IC50 (Orexin receptor type 2 [9])	IC50 [11]	also measured
Cc1ccccc1OC/C(O)=C(\C#N)c1nc2ccccc2[nH]1	–	–	–	–	–	–	IC50 (HEK293 [1]): > 89.2 µM (inactive); EC50 (HEK293 [2]): > 54.7 µM (inactive); EC50 (Insulin-degrading enzyme [3]): > 54.7 µM (inactive); AC50 (Cytochrome P450 1A2): 0.282 µM (inconclusive); EC50 (Insulin-degrading enzyme [4]): > 54.7 µM (inactive)
CC(C)Cc1ccc(C(C)CC2=CCC(CN(C)C)C2=O)cc1 (stereo not drawn)	–	–	–	–	–	–	IC50 [5]: > 64.7 µM (inactive); GI50 (P388/ADR): 1.09 µM (active); GI50 (P388): 2.02 µM (inactive); IC50 (Melanocortin receptor 4): 8.78 µM (active); GI50 (SN12K1): 3.33 µM (inactive)
O=C(OCc1cc(=O)n2c(n1)sc1ccccc12)c1cccc(O)c1	> 88.8 µM (inactive)	5.46 µM (active)	37 µM (inactive)	> 66.2 µM (inactive)	> 50 µM (inactive)	5.73 µM (active)	IC50 [10]: 3.87 µM (active)
N#Cc1cccn1-c1nccc(-c2cccs2)n1	> 88.8 µM (inactive)	3.66 µM (active)	> 49.7 µM (inactive)	> 66.2 µM (inactive)	> 50 µM (inactive)	20.3 µM (inactive)	–
